Reference: patent US20260297042A1, “BIARYLAMIDE DERIVATIVES AND THEIR USE AS PKMYT1 INHIBITORS” (CANCER RESEARCH TECHNOLOGY LIMITED, priority 2023, published 2026)
Structures can show the parent of a compound that is named as a salt.

Columns and labels:
Human PKMYT1 = target: T1, Human PKMYT1 (Homo sapiens, UniProt Q99640); test: PKMYT1 biochemical ADP-Glo enzymatic assay; details: ADP-Glo; 15 nM PKMYT1 kinase domain, 500 µM ATP, 60 minutes at 26° C.; banded
T1 construct: Human PKMYT1 75-362 was cloned as a TEV cleavable 6xHis fusion; 6xHis (TEV cleavable) (cleaved yes); made in house; host or cells: bacterial cells
T1 sequence (Q99640 75-362): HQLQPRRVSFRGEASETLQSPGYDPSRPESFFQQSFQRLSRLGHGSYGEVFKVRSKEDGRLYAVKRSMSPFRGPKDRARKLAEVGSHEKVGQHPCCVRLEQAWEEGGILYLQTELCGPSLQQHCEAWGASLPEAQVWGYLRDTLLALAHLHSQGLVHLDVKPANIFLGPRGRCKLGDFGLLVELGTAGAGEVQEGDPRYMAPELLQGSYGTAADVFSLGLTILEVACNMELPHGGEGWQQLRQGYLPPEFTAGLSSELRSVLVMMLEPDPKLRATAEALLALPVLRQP
In short: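 Compounds were titrated over 10 points (3-fold steps), then 15 nM purified PKMYT1 kinase domain (aa 75-362) and 500 µM ATP were added in pH 7.5 HEPES buffer. After 60 min at 26 °C, remaining ATP was depleted and ADP converted to luminescence for IC50 fitting.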

WEE1 = target: T2, WEE1 (Homo sapiens, UniProt P30291); test: Selectivity versus WEE1 assay (ADP-Glo enzymatic assay); assay type: biochemical; details: banded; for IC50: ADP-Glo, 15 nM WEE1, 60 minutes at 26° C.; for PKMYT1 vs. WEE1 selectivity: fold difference in selectivity for PKMYT1 over WEE1, ">N" = at least in this band but could be higher
T2 construct: purchased Thermo Fisher PR7373A
In short: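 Compounds were pre-dispensed, enzyme (15 nM final) was added in pH 7.5 HEPES buffer, and ATP ([…]) then started a 60 min incubation at 26° C. Afterwards ADP-Glo reagents were added in turn and luminescence was measured to derive IC50 values.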

T2 sequence (P30291 whole entry): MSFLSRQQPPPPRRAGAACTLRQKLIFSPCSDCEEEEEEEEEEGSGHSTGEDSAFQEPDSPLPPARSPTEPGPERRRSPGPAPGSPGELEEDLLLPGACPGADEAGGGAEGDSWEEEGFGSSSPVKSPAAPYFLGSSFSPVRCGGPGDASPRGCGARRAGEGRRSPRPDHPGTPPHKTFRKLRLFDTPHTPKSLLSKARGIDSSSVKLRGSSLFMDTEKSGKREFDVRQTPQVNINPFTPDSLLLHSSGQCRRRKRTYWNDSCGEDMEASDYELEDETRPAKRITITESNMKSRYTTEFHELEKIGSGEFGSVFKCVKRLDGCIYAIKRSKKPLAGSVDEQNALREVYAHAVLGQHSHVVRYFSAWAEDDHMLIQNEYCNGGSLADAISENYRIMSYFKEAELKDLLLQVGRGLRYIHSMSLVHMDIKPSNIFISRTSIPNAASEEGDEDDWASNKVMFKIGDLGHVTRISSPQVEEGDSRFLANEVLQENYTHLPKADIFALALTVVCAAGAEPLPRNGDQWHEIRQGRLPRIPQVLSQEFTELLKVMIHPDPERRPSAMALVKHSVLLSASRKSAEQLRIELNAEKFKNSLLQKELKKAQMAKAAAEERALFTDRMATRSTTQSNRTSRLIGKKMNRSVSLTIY

| SMILES | IC50 (Human PKMYT1) [nM] | IC50 (WEE1) [nM] | PKMYT1 vs. WEE1 selectivity (WEE1) |
| --- | --- | --- | --- |
| Cc1ccc(O)c(C)c1NC(=O)c1cnc(Nc2ccn(CC(=O)N3CCC[C@H](O)C3)n2)s1 [BAA-163] | < 50 | > 11000 | Y (1000-5000 fold) |
| Cc1ccc(O)c(C)c1NC(=O)c1cnc(Nc2ccn(CC(=O)N[C@H](C)CO)n2)s1 [BAA-164] | < 50 | > 11000 | Y (1000-5000 fold) |
| Cc1ccc(O)c(C)c1NC(=O)c1cnc(Nc2ccn(CC(=O)N[C@@H](C)CO)n2)s1 [BAA-165] | < 50 | > 11000 | Y (1000-5000 fold) |
| COCCNC(=O)Cn1ccc(Nc2ncc(C(=O)Nc3c(C)ccc(O)c3C)s2)n1 [BAA-166, N-(3-hydroxy-2,6-dimethyl-phenyl)-2-[[1-[2-(2-methoxyethylamino)-2-oxo-ethyl]pyrazol-3-yl]amino]thiazole-5-carboxamide] | < 50 | > 11000 | Y (1000-5000 fold) |
| Cc1ccc(O)c(C)c1NC(=O)c1cnc(Nc2ccn(CC(=O)NCCN3CCCC3)n2)s1 [BAA-167] | 50 to 1000 | > 11000 | X (100-<1000 fold) |
| Cc1ccc(O)c(C)c1NC(=O)c1cnc(Nc2ccn(CC(=O)NCCN3CCCCC3)n2)s1 [BAA-168, N-(3-hydroxy-2,6-dimethyl-phenyl)-2-[[1-[2-oxo-2-[2-(1-piperidyl)ethylamino]ethyl]pyrazol-3-yl]amino]thiazole-5-carboxamide (hydrochloride)] | 50 to 1000 | > 11000 | W (10-<100 fold) |
| Cc1ccc(O)c(C)c1NC(=O)c1cnc(Nc2ccn(CC(=O)N3CCC(C)(O)CC3)n2)s1 [BAA-169, N-(3-hydroxy-2,6-dimethyl-phenyl)-2-[[1-[2-(4-hydroxy-4-methyl-1-piperidyl)-2-oxo-ethyl]pyrazol-3-yl]amino]thiazole-5-carboxamide] | < 50 | > 11000 | Y (1000-5000 fold) |
| Cc1ccc(O)c(C)c1NC(=O)c1cnc(Nc2ccn(CC(=O)NC[C@@H](C)O)n2)s1 [BAA-170, N-(3-hydroxy-2,6-dimethyl-phenyl)-2-[[1-[2-[[(2R)-2-hydroxypropyl]amino]-2-oxo-ethyl]pyrazol-3-yl]amino]thiazole-5-carboxamide] | < 50 | > 11000 | Y (1000-5000 fold) |
| Cc1ccc(O)c(C)c1NC(=O)c1cnc(Nc2ccn(CC(=O)N3CCCN(C)CC3)n2)s1 [BAA-171] | < 50 | > 11000 | X (100-<1000 fold) |
| Cc1ccc(O)c(C)c1NC(=O)c1cnc(Nc2ccn(CC(=O)N3C[C@@H]4C[C@H]3CN4C)n2)s1 [BAA-172] | < 50 | > 11000 | X (100-<1000 fold) |
| Cc1ccc(O)c(C)c1NC(=O)c1cnc(Nc2ccn(CC(=O)N3CCC3)n2)s1 [BAA-175, 2-[[1-[2-(azetidin-1-yl)-2-oxo-ethyl]pyrazol-3-yl]amino]-N-(3-hydroxy-2,6-dimethyl-phenyl)thiazole-5-carboxamide] | < 50 | > 11000 | Y (1000-5000 fold) |
| Cc1ccc(O)c(C)c1NC(=O)c1cnc(Nc2ccn(CC(=O)N3CCC(F)(F)C3)n2)s1 [BAA-176] | < 50 | > 11000 | Y (1000-5000 fold) |
| CCN1CCN(C(=O)Cn2ccc(Nc3ncc(C(=O)Nc4c(C)ccc(O)c4C)s3)n2)CC1 [BAA-177] | < 50 | > 11000 | X (100-<1000 fold) |
| Cc1ccc(O)c(C)c1NC(=O)c1cnc(Nc2ccn(CC(=O)N3CCN(C(C)C)CC3)n2)s1 [BAA-178] | 50 to 1000 | > 11000 | X (100-<1000 fold) |
| Cc1ccc(O)c(C)c1NC(=O)c1cnc(Nc2ccn(CC(=O)N3CC4CCC(C3)N4C(=O)OC(C)(C)C)n2)s1 [BAA-180] | < 50 | > 11000 | Y (1000-5000 fold) |
| Cc1ccc(O)c(C)c1NC(=O)c1cnc(Nc2ccn(CC(=O)N3CCN(C4CC4)CC3)n2)s1 [BAA-182, 2-[[1-[2-(4-cyclopropylpiperazin-1-yl)-2-oxo-ethyl]pyrazol-3-yl]amino]-N-(3-hydroxy-2,6-dimethyl-phenyl)thiazole-5-carboxamide] | < 50 | > 11000 | Y (1000-5000 fold) |
| Cc1ccc(O)c(C)c1NC(=O)c1cnc(Nc2ccn(CC(=O)N3CCN(CC(F)(F)F)CC3)n2)s1 [BAA-184] | 50 to 1000 | > 11000 | >X (100-<1000 fold) |
| Cc1ccc(O)c(C)c1NC(=O)c1cnc(Nc2ccn(CC(=O)N3CCN(C4CCC4)CC3)n2)s1 [BAA-185] | 50 to 1000 | > 11000 | >Y (1000-5000 fold) |
| Cc1ccc(O)c(C)c1NC(=O)c1cnc(Nc2ccn(CC(=O)N3CCN(C4CCCC4)CC3)n2)s1 [BAA-186] | < 50 | > 11000 | Y (1000-5000 fold) |
| Cc1ccc(O)c(C)c1NC(=O)c1cnc(Nc2ccn(CC(=O)N3CCN(C4CCCCC4)CC3)n2)s1 [BAA-187] | < 50 | > 11000 | Y (1000-5000 fold) |
| CCNC(=O)Cn1ccc(Nc2ncc(C(=O)Nc3c(C)ccc(O)c3C)s2)n1 [BAA-188] | < 50 | > 11000 | Y (1000-5000 fold) |

Now from value to molecule:

| IC50 (Human PKMYT1) [nM] | IC50 (WEE1) [nM] | PKMYT1 vs. WEE1 selectivity (WEE1) | SMILES |
| --- | --- | --- | --- |
| 50 to 1000 | > 11000 | Y (1000-5000 fold) | Cc1ccc(O)c(C)c1NC(=O)c1cnc(Nc2ccn(CC(=O)NC(C)C)n2)s1 [BAA-189, N-(3-hydroxy-2,6-dimethyl-phenyl)-2-[[1-[2-(isopropylamino)-2-oxo-ethyl]pyrazol-3-yl]amino]thiazole-5-carboxamide] |
| < 50 | > 11000 | Y (1000-5000 fold) | Cc1ccc(O)c(C)c1NC(=O)c1cnc(Nc2ccn(CC(=O)NC3CCC3)n2)s1 [BAA-191] |
| < 50 | > 11000 | Y (1000-5000 fold) | Cc1ccc(O)c(C)c1NC(=O)c1cnc(Nc2ccn(CC(=O)NC3CCCC3)n2)s1 [BAA-192] |
| < 50 | > 11000 | Y (1000-5000 fold) | Cc1ccc(O)c(C)c1NC(=O)c1cnc(Nc2ccn(CC(=O)NC3CCCCC3)n2)s1 [BAA-193] |
| < 50 | > 11000 | Y (1000-5000 fold) | Cc1ccc(O)c(C)c1NC(=O)c1cnc(Nc2ccn(CC(=O)N3CC4C(C3)C4(F)F)n2)s1 (stereo not drawn) [BAA-194] |
| < 50 | > 11000 | Y (1000-5000 fold) | Cc1ccc(O)c(C)c1NC(=O)c1cnc(Nc2ccn(CC(=O)NC3CCOCC3)n2)s1 [BAA-195] |
| < 50 | > 11000 | Y (1000-5000 fold) | Cc1ccc(O)c(C)c1NC(=O)c1cnc(Nc2ccn(CC(=O)N3CC(F)(F)C3)n2)s1 [BAA-196] |
| < 50 | > 11000 | Y (1000-5000 fold) | CCCNC(=O)Cn1ccc(Nc2ncc(C(=O)Nc3c(C)ccc(O)c3C)s2)n1 [BAA-197] |
| < 50 | > 11000 | Y (1000-5000 fold) | Cc1ccc(O)c(C)c1NC(=O)c1cnc(Nc2ccn(CC(=O)N3CCN(C(=O)CC(C)C)CC3)n2)s1 [BAA-198, N-(3-hydroxy-2,6-dimethyl-phenyl)-2-[[1-[2-[4-(3-methylbutanoyl)piperazin-1-yl]-2-oxo-ethyl]pyrazol-3-yl]amino]thiazole-5-carboxamide] |
| < 50 | 1000 to 11000 | Y (1000-5000 fold) | Cc1ccc(O)c(C)c1NC(=O)c1cnc(Nc2ccn(CC(=O)N3CC4(CCC4)C3)n2)s1 [BAA-199] |
| < 50 | > 11000 | X (100-<1000 fold) | Cc1ccc(O)c(C)c1NC(=O)c1cnc(Nc2ccn(CC(=O)N3CC4(CNC4)C3)n2)s1 [BAA-200, 2-[[1-[2-(2,6-Diazaspiro[3.3]heptan-2-yl)-2-oxo-ethyl]pyrazol-3-yl]amino]-N-(3-hydroxy-2,6-dimethyl-phenyl)thiazole-5-carboxamide 2,2,2-trifluoroacetate] |
| < 50 | > 11000 | X (100-<1000 fold) | Cc1ccc(O)c(C)c1NC(=O)c1cnc(Nc2cc(C)n(CC(=O)N3CCN(C)CC3)n2)s1 [BAA-201] |
| < 50 | > 11000 | X (100-<1000 fold) | CCNC(=O)Cn1nc(Nc2ncc(C(=O)Nc3c(C)ccc(O)c3C)s2)cc1C [BAA-202, 2-[[1-[2-(ethylamino)-2-oxo-ethyl]-5-methyl-pyrazol-3-yl]amino]-N-(3-hydroxy-2,6-dimethyl-phenyl)thiazole-5-carboxamide] |
